The values that follow are results of earlier work, collected in patent US7276500B2, “Substituted amides, their preparation and use” (Abbott GmbH & Co. KG, priority 1998, dated 2007).

The test system of one series is cell membranes. To be noted: literature statement.
The subject of a further series is calpain. As to conditions: literature statement.
The subject of series [1] is calpain (cleavage of pp60src in platelets). As to conditions: Oda et al., J. Biol. Chem. 1993.

Take `CC(C)C[C@H](NC(=O)[C@H]1O[C@@H]1C(=O)O)C(=O)NCCCCN=C(N)N` [E 64]: in the series on cell membranes, the “crossing of cell membranes” value is given as “cross cell membranes only poorly” and the effect on cells entry is “only a poor effect on cells”. Besides, the calpain inhibition result in the series with calpain is given as “good calpain inhibitors”.

With `CCCC[C@@H](C=O)NC(=O)[C@H](CC(C)C)NC(=O)OCc1ccccc1` [calpeptin], the “cleavage of pp60src after activation of platelets” value in series [1] was “can be prevented”.

Take `CC(=O)N[C@@H](CC(C)C)C(=O)N[C@@H](CC(C)C)C(=O)N[C@H](C=O)CCCNC(=N)N` [leupeptin]: in the series on cell membranes, the “crossing of cell membranes” value is “cross cell membranes only poorly” and the effect on cells result is listed as “only a poor effect on cells”. Further, in the series with calpain, the calpain inhibition result is “good calpain inhibitors”.

With Ph—CONH—CH(CH2Ph)—CO—COCOOCH3, the calpain inhibition result with calpain is reported as “only a weak calpain inhibitor”.
